Measured values taken from PMC11666819, “Isolation, Structure Elucidation, and Bioactivity Evaluation of Two Alkaloids From Piper chaba H. Stem: A Traditional Medicinal Spice and Its Chemico‐Pharmacological Aspects” (Food Science & Nutrition, 2024).
Several values for one entry are separate records, joined by “and”; a condition that tells them apart may be missing. Equal values may be shown once.

Experiments:
[1] = system: acetic acid‐induced writhing; assay: Acetic acid‐induced writhing test; type: in vivo, Swiss albino mice; details: mice; for Number of writhing: mean
Procedure: (§1) To carry out the in vivo experiment, Swiss albino mice aged between 4 and 5 weeks, of both genders, were obtained from the Animal Resource Branch of the International Centre for Diarrheal Diseases and Research, Bangladesh (ICDDR, B) (the size of the animal population, n = 5). The mice were housed in standard polypropylene cages with a 12‐h light–dark cycle. Additionally, optimal conditions such as a controlled room temperature of 24°C ± 2°C and a relative humidity of 60%–70% were upheld. They were provided with ICDDR, B‐formulated rodent food, and water ad libitum. The research protocol was approved by the Animal Ethics Committee of the State University of Bangladesh, Dhaka (2023‐01‐04/SUB/A‐ ERC/003) before initiating the study. Throughout the experiments, strict adherence to guidelines for the use and care of laboratory animals was ensured. Recognizing the sensitivity of mice to environmental variations, they were acclimatized to the experimental conditions for a minimum of 3–4 days before the commencement of the experiment. Furthermore, all ethical protocols and regulations were strictly adhered to during the design and execution of the research experiments. At the end of the experiment, an anesthesia overdose (Ketamine HCl [100 mg/kg] and Xylazine [7.5 mg/kg]) through the intraperitoneal route was given to the mice models followed by euthanasia, following the previously delineated protocols established by Zimmermann ([1983]) and Davis ([2001]) (Alam et al. [2021]; Davis [2001]; Zimmermann [1983]). All tests were carried out in abiding with the guidelines for the care and use of laboratory animals, as approved by the institutional ethical committee.
The analgesic efficacy of the isolated compounds, Chabamide I and Chingchengenamide A, was assessed utilizing the acetic acid‐induced writhing test, following the methodology outlined by Ahmad et al. ([2010]). […] Conversely, Groups III and IV received individual alkaloids at doses of 10 and 20 mg/kg; b.w, p.o., respectively. Subsequently, an intraperitoneal injection of acetic acid solution (0.6% v/v) was administered. The frequency of writhing responses was meticulously recorded at 5‐min intervals post‐acetic acid injection and monitored over 25 min.

[2] = system: Bacillus cereus [clinical isolates]; assay: Disk diffusion test; type: cell-based
[3] = system: Bacillus megaterium [ATCC 25918]; assay: Disk diffusion test; type: cell-based; details: for zone of inhibition at 100 µg/disc: Priestia megaterium, ATCC25918; for Zone of Inhibition: Bacillus megaterium, standards 30 μg/disk
[4] = system: Bacillus subtilis [ATCC6633]; assay: Disk diffusion test; type: cell-based; details: for zone of inhibition at 100 µg/disc: ATCC6633; for Zone of Inhibition: standards 30 μg/disk
[5] = system: Staphylococcus aureus [ATCC25923]; assay: Disk diffusion test; type: cell-based; details: for zone of inhibition at 100 µg/disc: ATCC25923; for Zone of Inhibition: standards 30 μg/disk
[6] = system: Sarcina lutea [clinical isolates]; assay: Disk diffusion test; type: cell-based; details: for zone of inhibition at 100 µg/disc: Micrococcus luteus; for Zone of Inhibition: Sarcina lutea, standards 30 μg/disk
[7] = system: Escherichia coli [ATCC25922]; assay: Disk diffusion test; type: cell-based; details: for zone of inhibition at 100 µg/disc: ATCC25922; for Zone of Inhibition: standards 30 μg/disk
[8] = system: Pseudomonas aeruginosa [ATCC27833]; assay: Disk diffusion test; type: cell-based; details: for zone of inhibition at 100 µg/disc: ATCC27833
[9] = system: Salmonella paratyphi [clinical isolates]; assay: microbe, parasite or virus in culture; type: cell-based; details: for zone of inhibition at 100 µg/disc: Salmonella enterica, PARATYPHI; for Zone of Inhibition: Salmonella paratyphi, standards 30 μg/disk
[10] = system: Salmonella typhi [clinical isolates]; assay: Disk diffusion test; type: cell-based; details: for zone of inhibition at 100 µg/disc: Salmonella enterica, TYPHI; for Zone of Inhibition: Salmonella typhi
[11] = system: Shigella dysenteriae [clinical isolates]; assay: Disk diffusion test; type: cell-based; details: for Zone of Inhibition: standards 30 μg/disk
[12] = system: Vibrio mimicus [clinical isolates]; assay: Disk diffusion test; type: cell-based; details: for Zone of Inhibition: standards 30 μg/disk
[13] = system: Vibrio parahemolyticus [clinical isolates]; assay: Disk diffusion test; type: cell-based; details: for zone of inhibition at 100 µg/disc: Vibrio; for Zone of Inhibition: Vibrio parahemolyticus, standards 30 μg/disk
[14] = system: castor oil‐induced diarrhea; assay: Castor oil‐induced diarrhea test; type: in vivo, Swiss albino mice; details: mice; for Number of diarrheal feces: mean
Procedure: as §1
The antidiarrheal potential of the compounds Chabamide I and Chingchengenamide A isolated from P. chaba was scrutinized employing the castor oil‐induced method, as delineated by Shoba and Thomas ([2001]) with slight adjustments. In this investigation, mice were judiciously randomized into four cohorts, each consisting of six subjects. Before experimentation, the mice underwent an overnight fasting period with unrestricted access to water.
Group I, designated as the control, received vehicle solutions comprising distilled water with 1% Tween‐80. […] Groups III and IV, representing the test cohorts, received isolated phytochemicals individually at oral dosages of 10 and 20 mg/kg body weight, respectively. An additional 0.5 mL of castor oil was applied to all subjects 1 h after the initial application of test samples. Subsequently, individual mice were placed in enclosures with floors lined with transparent paper.
Throughout the observational timeframe, diverse parameters were meticulously monitored, encompassing the initiation of diarrhea, quantification of wet stools in terms of number and weight, and the cumulative number and weight of fecal output. The observation persisted until 4 h […] the subsequent application of castor oil, with the calculated mean values being designated as the definitive results.

[15] = system: eight tested human tumor cell lines; parameters: method as in Wang et al. [2014]; details: ref Wang et al. [2014]; cited from earlier work

For O=C(O)Cc1ccccc1Nc1c(Cl)cccc1Cl [Diclofenac Sodium, diclofenac sodium, reference compound], the “% reduction of writhing” value ([1]; standard, 5 mg/kg b.w., 5 mg/kg) was 80% and 77.55% and the Number of writhing ([1]; standard, 5 mg/kg b.w.) was 3.67.

CC(C)CNC(=O)/C=C/C=C/CCc1ccc2c(c1)OCO2 [Chingchengenamide A] showed a zone of inhibition at 100 µg/disc [2] of 17 mm, a zone of inhibition at 100 µg/disc [3] of 14 mm and a zone of inhibition at 100 µg/disc [4] of 13 mm. The zone of inhibition at 100 µg/disc [5] was 15 mm, the zone of inhibition at 100 µg/disc [6] was 16 mm and the zone of inhibition at 100 µg/disc [7] was 17 mm. The zone of inhibition at 100 µg/disc [8] was 21 mm, the zone of inhibition at 100 µg/disc [9] was 14 mm and the zone of inhibition at 100 µg/disc [10] was 12 mm. It also gave a zone of inhibition at 100 µg/disc [11] of 15 mm, a zone of inhibition at 100 µg/disc [12] of 16 mm and a zone of inhibition at 100 µg/disc [13] of 15 mm. The “% reduction of diarrhea” value ([14]; 10 mg/kg b.w., oral) was 33.33%, the “Number of diarrheal feces” value ([14]; 10 mg/kg b.w., oral) was 6.67 and the “% reduction of diarrhea” value ([14]; 20 mg/kg b.w., oral) was 40%. For the same molecule, the “Number of diarrheal feces” value ([14]; 20 mg/kg b.w., oral) was 6, the “% reduction of writhing” value ([1]; 10 mg/kg b.w., p.o.) was 34.69% and the Number of writhing ([1]; 10 mg/kg b.w., p.o.) was 10.67. For the same molecule, the “% reduction of writhing” value ([1]; 20 mg/kg b.w., p.o.) was 42.86%, the Number of writhing ([1]; 20 mg/kg b.w., p.o.) was 9.33 and the “inhibitory effectiveness against human tumor cell lines” value [15] was “inhibitory effectiveness against at least one of eight tested human tumor cell lines”.

With CC(C)CNC(=O)C1C(C(=O)N2CCCCC2)C=CC(c2ccc3c(c2)OCO3)C1c1ccc2c(c1)OCO2 (stereo not drawn) [Chabamide I] the zone of inhibition at 100 µg/disc [2] was 20 mm, the “Zone of Inhibition” value ([2]; 100 μg/disk) was “notable antimicrobial activity” and the zone of inhibition at 100 µg/disc [3] was 15 mm. For the same molecule, the zone of inhibition at 100 µg/disc [4] was 11 mm, the zone of inhibition at 100 µg/disc [5] was 18 mm and the zone of inhibition at 100 µg/disc [6] was 16 mm. For the same molecule, the zone of inhibition at 100 µg/disc [7] was 18 mm, the “Zone of Inhibition” value ([8]; 100 μg/disk) was “notable antimicrobial activity” and the zone of inhibition at 100 µg/disc [8] was 21 mm. The zone of inhibition at 100 µg/disc [9] was 18 mm, the zone of inhibition at 100 µg/disc [10] was 21 mm and the “Zone of Inhibition” value ([10]; 100 μg/disk) was “notable antimicrobial activity”. The zone of inhibition at 100 µg/disc [11] was 18 mm, the zone of inhibition at 100 µg/disc [12] was 15 mm and the zone of inhibition at 100 µg/disc [13] was 16 mm. The “% reduction of diarrhea” value ([14]; 10 mg/kg b.w., oral) was 43.33%, the “Number of diarrheal feces” value ([14]; 10 mg/kg b.w., oral) was 5.67 and the “% reduction of diarrhea” value ([14]; 20 mg/kg b.w., oral) was 46.67%. For the same molecule, the “Number of diarrheal feces” value ([14]; 20 mg/kg b.w., oral) was 5.33, the “% reduction of writhing” value ([1]; 10 mg/kg b.w., p.o.) was 40.82% and the Number of writhing ([1]; 10 mg/kg b.w., p.o.) was 9.67. For the same molecule, the “% reduction of writhing” value ([1]; 20 mg/kg b.w., p.o.) was 53.06%, the Number of writhing ([1]; 20 mg/kg b.w., p.o.) was 7.67 and the “inhibitory effectiveness against human tumor cell lines” value [15] was “inhibitory effectiveness against at least one of eight tested human tumor cell lines”.

In the case of CN(C)C(=O)C(CCN1CCC(O)(c2ccc(Cl)cc2)CC1)(c1ccccc1)c1ccccc1 [Loperamide, loperamide, reference compound], the “Number of diarrheal feces” value ([14]; standard, 5 mg/kg b.w.) is reported as 2.

For CC[C@H]1OC(=O)[C@H](C)[C@@H](O[C@H]2C[C@@](C)(OC)[C@@H](O)[C@H](C)O2)[C@H](C)[C@@H](O[C@@H]2O[C@H](C)C[C@H](N(C)C)[C@H]2O)[C@](C)(O)C[C@@H](C)CN(C)[C@H](C)[C@@H](O)[C@]1(C)O [Azithromycin, azithromycin, reference compound], the “Zone of Inhibition” value ([2]; standards 30 μg/disk) was 35 mm, the “Zone of Inhibition” value [3] was 33 mm and the “Zone of Inhibition” value [4] was 32 mm. For the same molecule, the “Zone of Inhibition” value [5] was 39 mm, the “Zone of Inhibition” value [6] was 37 mm and the “Zone of Inhibition” value [7] was 39 mm. The “Zone of Inhibition” value ([8]; standards 30 μg/disk) was 42 mm, the “Zone of Inhibition” value [9] was 32 mm and the “Zone of Inhibition” value ([10]; standards 30 μg/disk) was 38 mm. For the same molecule, the “Zone of Inhibition” value [11] was 38 mm, the “Zone of Inhibition” value [12] was 33 mm and the “Zone of Inhibition” value [13] was 40 mm.

In the case of CC1(C)S[C@@H]2[C@H](NC(=O)[C@H](N)c3ccc(O)cc3)C(=O)N2[C@H]1C(=O)O [Amoxicillin, amoxicillin, reference compound], the “Zone of Inhibition” value ([2]; standards 30 μg/disk) is reported as 33 mm, the “Zone of Inhibition” value [3] is reported as 29 mm and the “Zone of Inhibition” value [4] is reported as 26 mm. The “Zone of Inhibition” value [5] was 36 mm, the “Zone of Inhibition” value [6] was 32 mm and the “Zone of Inhibition” value [7] was 37 mm. For the same molecule, the “Zone of Inhibition” value ([8]; standards 30 μg/disk) was 38 mm, the “Zone of Inhibition” value [9] was 32 mm and the “Zone of Inhibition” value ([10]; standards 30 μg/disk) was 31 mm. For the same molecule, the “Zone of Inhibition” value [11] was 30 mm, the “Zone of Inhibition” value [12] was 28 mm and the “Zone of Inhibition” value [13] was 35 mm.
